According to patent US20050277602A1, “Methods employing agonists of P38 map kinase for the treatment of asthma” (priority 2004, published 2005):
Values joined by “and” are separate entries in the source; they are usually repeats but may differ in a detail not shown here. Identical values can stand only once. “Also recorded” adds a separate entry of the source. Like-named read-outs stand apart in the source and are kept apart here.

Key:
ERK1/2 = test: Immunoblot analysis of phosphorylated ERK1/2 in rabbit ASM tissues; assay type: cell-based; conditions: for effect on Der p1-induced expression of phosphorylated ERK1/2: Der p1-exposed ASM pretreated/co-treated with E-64, SB202190 or anisomycin (50 ng/ml)
Protocol: (§1) Protein levels of phosporylated and total ERK1/2 and p38 MAP kinase were assessed by Western blot analysis of whole cell lysates isolated from rabbit ASM tissues following treatment with either vehicle alone or cysteine-activated Der p1 (1 μg/ml), both in the absence and presence of E-64, SB202190, or anisomycin. The tissues were homogenized and proteins extracted in a buffer containing 50 mM Tris-HC 1,150 mM NaCl, 1 mM EDTA (pH 7.4) with 1 mM phenylmethylsulfonyl fluoride, 5 μg/mL aprotinin, and 5 μg/mL leupeptin. Following removal of insoluble debris by centrifugation, gel-loading buffer was added to the supernatants, and extracts were then loaded (using 30 μg total protein/sample) on a 10% SDS-PAGE gel for immunoblotting after transferring to a nitrocellulose membrane. The membranes were blocked with 5% nonfat dry milk and then incubated overnight with monoclonal mouse anti-human phosphotyrosine-threonine (Thr180/Tyr182)-p38 MAP kinase and p38 MAP kinase, and anti-human phosphotyrosine-threonine (Thr202/Tyr204)-p44/42 (ERK1/2) and p44/42 primary antibodies. The kinase levels were detected using enhanced chemiluminescence after a 1-hour incubation with a 1:1,000 dilution of horseradish peroxidase (HRP)-conjugated goat-anti-mouse secondary antibody, followed by exposure to autoradiography film. Protein band intensities were quantified using Alphalmager, and the data normalized relative to those obtained in untreated ASM samples.

rabbit ASM tissues [1] = test: Constrictor responses to acetylcholine in isolated rabbit ASM tissues (organ bath, isometric tension); assay type: cell-based; conditions: for effect on constrictor responses to ACh in tissues not exposed to Der p1: control (vehicle-exposed) ASM; for maximal constrictor response (Tmax) to ACh: mean±SE
Protocol: (§2) Following general anesthesia with xylazine (10 mg/kg) and ketamine (50 mg/kg), rabbits were sacrificed with an overdose of pentobarbital (125 mg/kg). As described previously (Grunstein et al. (2001) Am J Physiol Lung Cell Mol Physiol 280:L229-L238), the tracheae were removed via open thoracotomy, the loose connective tissue and epithelium were carefully scraped and removed, and the tracheae were divided into ring segments. Each alternate ring was incubated for 24 hours at room temperature in the presence of either vehicle (saline) alone (control), vehicle containing cysteine (5 mM), or varying concentrations of affinity purified Der p1 allergen (0.1, 0.5, 1.0, 5.0 μg/ml) both in the absence and presence of cysteine, as addition of the latter is required to restore the cysteine protease activity of the purified Der p1. In parallel experiments, 30 min prior to incubation in control or Der p1-containing medium, ASM segments were treated with either the specific cysteine protease inhibitor, E-64 (trans-epoxysuccinyl-L-leucyl-amido (4-guanidino)-butane; 1 μM), the serine protease inhibitor, leupeptin (1 μM), the MEK1/2-specific inhibitors, U0126 (5 μM) or PD98059 (10 μM), or the specific p38 MAP kinase inhibitors, SB202190 (10 μM) or SB203580 (10 μM).
(§3) Following incubation, the ASM segments were placed in organ baths containing modified Krebs-Ringer solution aerated with 5% CO2 in oxygen (pH: 7.35-7.40), and the tissues were attached to force transducers from which isometric tension was continuously monitored on a multichannel recorder, as previously described (Hirst et al. (2002) Am J Respir Crit Care Med 165:1161-71). Cholinergic contractility was then assessed in the ASM segments by cumulative administration of acetylcholine (ACh; 10^−10 to 10^−4 M). Thereafter, the tissues were repeatedly rinsed with fresh buffer, and subsequent relaxation responses to isoproterenol (10^−10-10^−4 M) were generated after the tissues were half-maximally contracted with ACh. The constrictor dose-response curves to ACh were analyzed in terms of each tissue's maximal isometric contractile force (Tmax) to the agonist, and the relaxation responses to isoproterenol were assessed in terms of % maximal relaxation (Rmax) from the initial level of induced cholinergic contraction, and sensitivity to the relaxing agent was determined as the corresponding pD50 value (i.e., geometric mean ED50 value) associated with 50% of Rmax.

p38 MAP kinase = test: Immunoblot analysis of phosphorylated p38 MAP kinase in rabbit ASM tissues; assay type: cell-based; conditions: for expression of phosphorylated p38 MAP kinase relative to control (unstimulated) ASM: tissues exposed for 30 min, anisomycin 50 ng/ml or Der p1 alone
Protocol: as §1

rabbit ASM tissues [2] = test: Relaxation responses to isoproterenol in isolated rabbit ASM tissues half-maximally contracted with ACh; assay type: cell-based; conditions: for effect on relaxation responses to isoproterenol in tissues not exposed to Der p1: control ASM
Protocol: as §2, §3

[3] = system: cultured human ASM (HASM) cells; test: IgE-induced release of IL-6 from cultured human ASM cells (ELISA); assay type: cell-based
Protocol: Human airway smooth muscle cells were purchased from BioWhittaker, Inc., (Walkersville, […].) The cells were cultured in 100 mm dishes in Ham's F 12 nutrient mixture (Invitrogen, Carlsbad Calif.) supplemented with 10% FBS (Hyclone, Logan, Utah) under 5% CO2 environment. After attaining 90% confluence in cell culture, the cells were used for the studies described in Example 2.
Preparations of IgE immune complexes containing human IgE and mouse monoclonal IgG2B (anti-IgE) (Biodesign International, Saco, Me.) at a 15/5 μg ratio were added to cells 24 hr after serum deprivation. The cells were harvested at the indicated time points for immunoblotting and media were collected for ELISA analysis as described below.
IL 6 accumulation in the ASM cell culture media was detected using an ELISA kit for IL 6 purchased from Research Diagnostics Inc. (Flanders, N.J.). Culture media was diluted 1:50 into a sample dilution buffer supplied in the kit. The experiments were carried out according to the manufacturer's protocol.

OVA-sensitized mice = OVA-sensitized mice treated with U0126; cited from earlier work
HL-60 leukemia cells = conditions: cited from earlier work
ASM preparations = test: Intracellular cAMP accumulation in ASM preparations (EIA); assay type: cell-based, rabbit; conditions: tissues exposed to Der p1; data not shown
Protocol: Intracellular cAMP levels were assayed in control (untreated) and Der p1-treated ASM preparations under baseline (unstimulated) conditions and at 10 min following administration of isoproterenol (0.1-10 μM). Following stimulation with isoproterenol, the tissues were homogenized and the cAMP levels were measured using the Form a A cyclic AMP “PLUS” EIA kit (Biomol Inc., Plymouth Meeting, Pa.) following manufacturer's protocol.

[4] = Der p1-exposed ASM, E-64 1 μM, leupeptin 1 μM, U0126 5 μM, PD98059 10 μM, SB202190/SB203580 10 μM, anisomycin 50 ng/ml
[5] = Der p1-exposed tissues, densitometry, 4 experiments
[6] = Der p1 not pre-activated with cysteine (inactivated), data not shown

Molecule | effect on Der p1-induced expression of phosphorylated ERK1/2 (ERK1/2) | effect of pretreatment on Der p1-induced enhanced constrictor responsiveness to ACh (rabbit ASM tissues [1]; [4]) | effect on constrictor responses to ACh in tissues not exposed to Der p1 (rabbit ASM tissues [1]) | effect of pretreatment on Der p1-induced impaired relaxation responsiveness to isoproterenol (rabbit ASM tissues [2]; [4]) | effect on relaxation responses to isoproterenol in tissues not exposed to Der p1 (rabbit ASM tissues [2]) | further results
CC(C)C[C@H](NC(=O)[C@H]1O[C@@H]1C(=O)O)C(=O)NCCCCN=C(N)N (relative stereo) [E-64, trans-epoxysuccinyl-L-leucyl-amido (4-guanidino)-butane] | neither the levels of phosphorylated ERK1/2 nor p38 MAP kinase were appreciably altered | largely abrogated | no effect | prevented | no effect | effect on Der p1-induced expression of phosphorylated p38 MAP kinase (p38 MAP kinase): neither the levels of phosphorylated ERK1/2 nor p38 MAP kinase were appreciably altered
COc1cccc(-c2cc(=O)c3ccccc3o2)c1N [PD98059] |  | qualitatively comparable opposing effects; also recorded: largely prevented | neither of these inhibitors produced a significant change | qualitatively comparable opposing effects; also recorded: largely prevented | neither of these inhibitors produced a significant change | 
Oc1ccc(-c2nc(-c3ccncc3)c(-c3ccc(F)cc3)[nH]2)cc1 [SB202190] | distinctly enhanced | further augmented |  | further significantly impaired |  | IgE-induced release of IL-6, augmented ([3]; IgE-exposed HASM cells pretreated with SB-202190): approximately 9 fold; maximal constrictor response (Tmax) to ACh (rabbit ASM tissues [1]; Der p1-exposed tissues pretreated with SB202190 (10 μM)): 136.2±6.2 g/g ASM wt.; maximal relaxation (Rmax) to isoproterenol (rabbit ASM tissues [2]; Der p1-exposed tissues pretreated with SB202190 (10 μM), mean): 37.6±7.1%
C[S+]([O-])c1ccc(-c2nc(-c3ccncc3)c(-c3ccc(F)cc3)[nH]2)cc1 (centres unmarked) [SB203580] |  | qualitatively comparable opposing effects | neither of these inhibitors produced a significant change | qualitatively comparable opposing effects | neither of these inhibitors produced a significant change | 
N#CC(=C(/N)Sc1ccccc1N)/C(C#N)=C(\N)Sc1ccccc1N [U0126] |  |  |  |  |  | effect on IgE-induced release of IL-6 ([3]; IgE-exposed HASM cells, concomitant pretreatment with U-0126): completely abrogated; effect of pretreatment on Der p1-induced enhanced constrictor responsiveness to ACh (rabbit ASM tissues [1]): completely abrogated; effect of pretreatment on Der p1-induced impaired relaxation responsiveness to isoproterenol (rabbit ASM tissues [2]): largely ablated; airway hyperresponsiveness, elevated intrapulmonary eosinophil counts and cytokine levels (OVA-sensitized mice): significantly inhibit
COc1ccc(C[C@H]2NC[C@H](O)[C@H]2OC(C)=O)cc1 [anisomycin] | largely abrogated | completely abrogated | no effect | largely prevented | no significant effect | effect on phosphorylated ERK1/2 expression in unstimulated ASM (ERK1/2; anisomycin 50 ng/ml, 30 min, no Der p1): essentially no effect; expression of phosphorylated p38 MAP kinase relative to control (unstimulated) ASM (p38 MAP kinase): increased expression; stimulated ERK activity (HL-60 leukemia cells; stimulated HL-60 cells): inhibits; basal ERK activity (HL-60 leukemia cells; unstimulated HL-60 cells): no effect
CC(=O)N[C@@H](CC(C)C)C(=O)N[C@@H](CC(C)C)C(=O)N[C@H](C=O)CCCNC(=N)N [leupeptin] |  | unaffected |  | unaffected |  | 
Der p1: affinity purified house dust mite allergen with intrinsic cysteine protease activity, activated with cysteine (protein, UniProt P08176 99-320, looked up) Peptidase 1: TNACSINGNAPAEIDLRQMRTVTPIRMQGGCGSCWAFSGVAATESAYLAYRNQSLDLAEQELVDCASQHGCHGDTIPRGIEYIQHNGVVQESYYRYVAREQSCRRPNAQRFGISNYCQIYPPNVNKIREALAQTHSAIAVIIGIKDLDAFRHYDGRTIIQRDNGYQPNYHAVNIVGYSNAQGVDYWIVRNSWDTNWGDNGYGYFAANIDLMMIEEYPYVVIL |  |  |  |  |  | maximal enhanced expression of phosphorylated ERK1/2 above basal (pretreatment) level (ERK1/2; [5]): 5.8 fold; isoproterenol-induced cAMP accumulation relative to control (untreated) ASM (ASM preparations): reduced; maximal constrictor response (Tmax) to ACh (rabbit ASM tissues [1]; ASM exposed 24 h to cysteine-activated Der p1 (1 μg/ml)): 133.7±8.4 g/g ASM wt. and 123.8±6.5 g/g ASM wt. and 119.0±8.2 g/g ASM wt.; effect on constrictor responsiveness (rabbit ASM tissues [1]; [6]): no effect; maximal enhanced expression of phosphorylated p38 MAP kinase above basal (pretreatment) level (p38 MAP kinase; [5]): 3.2 fold; expression of phosphorylated p38 MAP kinase relative to control (unstimulated) ASM (p38 MAP kinase): increased expression; sensitivity to isoproterenol (pD50) (rabbit ASM tissues [2]; ASM exposed 24 h to Der p1, mean±SE): 5.99±0.04 -log M; maximal relaxation (Rmax) to isoproterenol (rabbit ASM tissues [2]; ASM exposed 24 h to cysteine-activated Der p1, mean±SE): 37.9±4.9% and 48.8±4.7%; effect on relaxant responsiveness (rabbit ASM tissues [2]; [6]): no effect
